Holding throughout (format): biochemical
Assay [1] concerns the target T1, human JAK1 (a.a. 837-1142) (Homo sapiens, UniProt P23458).
T1 construct: human JAK1 (a.a. 837-1142); His tag (N); made in house; host or cells: insect cells (baculovirus)
The experiment in a line: In vitro JAK kinase assay (HTRF, phosphorylation of a biotinylated peptide), JAK1. The following applies: read-out: JAK1 IC50. The essentials:
(§1)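 Kinase reactions ran at room temperature for 1 h with ATP matched per isoform (JAK1 90 μM, JAK2 30 μM, JAK3 3 μM). After an EDTA stop, the phosphorylated biotin-peptide was read by HTRF using Eu-Py20 and SA-APC after 40 min binding.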
On the technique in general: Time-resolved FRET reads energy transfer from a long-lived donor to a nearby acceptor.

Assay [2] concerns the target T2, Recombinant Human Anaplastic Lymphoma Kinase (Homo sapiens, UniProt Q9UM73).
T2 construct: purchased Invitrogen, Carlsbad, Calif
Put plainly: ALK HTRF kinase assay. A digest of the protocol: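 Biotinylated peptide substrate, recombinant human ALK; detection via europium-chelate antibody to phosphotyrosine paired with streptavidin-APC. Potency expressed as IC50 from four-parameter curve fitting.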

In assay [3] the target is T3, human JAK2 (a.a. 828-1132) (Homo sapiens, UniProt O60674).
T3 construct: JAK2 (a.a. 828-1132); His tag (N); made in house; host or cells: insect cells (baculovirus)
T3 sequence (O60674 828-1132): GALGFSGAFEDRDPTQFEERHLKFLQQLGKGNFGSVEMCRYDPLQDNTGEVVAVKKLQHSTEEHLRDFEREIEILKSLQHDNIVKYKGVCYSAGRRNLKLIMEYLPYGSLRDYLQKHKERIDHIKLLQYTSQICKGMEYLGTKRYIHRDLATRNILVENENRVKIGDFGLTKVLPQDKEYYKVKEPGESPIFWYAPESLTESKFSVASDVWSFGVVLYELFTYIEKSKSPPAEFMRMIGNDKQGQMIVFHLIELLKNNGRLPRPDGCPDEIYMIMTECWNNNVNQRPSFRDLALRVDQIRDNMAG
Put plainly: In vitro JAK kinase assay (HTRF, phosphorylation of a biotinylated peptide), JAK2. A digest of the protocol: as §1

The target in the next assay is TYK2 (Homo sapiens, UniProt P29597). Put plainly: TYK2 kinase inhibition (Table A1).
Chain of TYK2 (P29597 whole entry): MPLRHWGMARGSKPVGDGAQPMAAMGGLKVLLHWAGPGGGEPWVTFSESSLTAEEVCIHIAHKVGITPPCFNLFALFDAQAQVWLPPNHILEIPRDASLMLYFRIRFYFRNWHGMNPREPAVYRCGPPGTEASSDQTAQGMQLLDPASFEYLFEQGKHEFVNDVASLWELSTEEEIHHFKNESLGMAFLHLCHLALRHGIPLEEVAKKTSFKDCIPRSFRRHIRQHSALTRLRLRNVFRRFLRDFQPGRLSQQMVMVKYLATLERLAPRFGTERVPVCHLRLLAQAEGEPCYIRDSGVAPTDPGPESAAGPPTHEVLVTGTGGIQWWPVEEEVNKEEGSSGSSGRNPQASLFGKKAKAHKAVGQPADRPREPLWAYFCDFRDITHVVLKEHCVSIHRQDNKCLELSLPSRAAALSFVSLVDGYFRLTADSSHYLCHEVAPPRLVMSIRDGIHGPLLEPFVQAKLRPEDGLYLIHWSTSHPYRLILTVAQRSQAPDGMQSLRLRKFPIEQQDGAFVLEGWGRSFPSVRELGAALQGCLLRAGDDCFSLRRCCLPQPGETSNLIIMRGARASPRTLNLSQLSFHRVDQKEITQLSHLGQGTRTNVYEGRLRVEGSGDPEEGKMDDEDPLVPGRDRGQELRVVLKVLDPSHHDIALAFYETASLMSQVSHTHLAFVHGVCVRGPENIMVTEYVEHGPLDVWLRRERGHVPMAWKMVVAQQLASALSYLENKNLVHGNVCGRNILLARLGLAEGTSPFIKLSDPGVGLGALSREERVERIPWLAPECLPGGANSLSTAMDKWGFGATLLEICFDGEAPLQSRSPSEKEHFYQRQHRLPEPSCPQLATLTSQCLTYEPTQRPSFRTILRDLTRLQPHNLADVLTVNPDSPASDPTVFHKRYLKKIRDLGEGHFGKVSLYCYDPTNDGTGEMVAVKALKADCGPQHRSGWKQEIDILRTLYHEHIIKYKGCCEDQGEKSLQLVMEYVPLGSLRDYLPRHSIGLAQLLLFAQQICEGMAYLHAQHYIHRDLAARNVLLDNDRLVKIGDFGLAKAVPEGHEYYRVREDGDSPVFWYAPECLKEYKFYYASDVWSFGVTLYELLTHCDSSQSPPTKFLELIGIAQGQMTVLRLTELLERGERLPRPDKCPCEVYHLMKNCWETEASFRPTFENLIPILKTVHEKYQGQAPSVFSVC
The target in assay [4] is T4, human JAK3 (a.a. 781-1124) (Homo sapiens, UniProt P52333).
T4 construct: JAK3 (a.a. 781-1124); His tag (N); made in house; host or cells: insect cells (baculovirus)
T4 sequence (P52333 781-1124): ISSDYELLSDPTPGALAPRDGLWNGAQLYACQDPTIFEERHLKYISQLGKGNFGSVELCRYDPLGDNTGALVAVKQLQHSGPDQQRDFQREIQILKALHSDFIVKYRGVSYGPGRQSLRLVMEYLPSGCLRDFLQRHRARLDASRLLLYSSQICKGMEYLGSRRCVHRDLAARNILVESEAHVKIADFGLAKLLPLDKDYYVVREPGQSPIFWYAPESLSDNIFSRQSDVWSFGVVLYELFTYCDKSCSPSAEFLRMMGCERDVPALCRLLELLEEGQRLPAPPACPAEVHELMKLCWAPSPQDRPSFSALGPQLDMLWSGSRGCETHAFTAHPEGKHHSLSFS
Put plainly: In vitro JAK kinase assay (HTRF, phosphorylation of a biotinylated peptide), JAK3. The essentials:
as §1

[5] abbreviates: Table B1, cells without percent sign.
Where [6] appears, read: method AA1 (90 μM ATP) or AA2 (1000 μM ATP), not stated per value.
Where [7] appears, read: compound at 500 nM or 1 mM, 90 μM ATP.
Where [8] appears, read: method AA1 (30 μM ATP) or AA2 (1000 μM ATP), not stated per value.
Setting [9] is: method AA1 (3 μM ATP) or AA2 (1000 μM ATP), not stated per value.
[10] abbreviates: compound at a concentration of 500 nM or 1 mM (not specified), cells shown as percentage.

Structures can show the parent of a compound that is named as a salt. Where two headings read alike, the source gives them in different places.

Data on 15 compounds can be found in patent US8871753B2, “Macrocyclic compounds and their use as kinase inhibitors” (Incyte Corporation, priority 2008, dated 2014).

T1 sequence (P23458 849-1154): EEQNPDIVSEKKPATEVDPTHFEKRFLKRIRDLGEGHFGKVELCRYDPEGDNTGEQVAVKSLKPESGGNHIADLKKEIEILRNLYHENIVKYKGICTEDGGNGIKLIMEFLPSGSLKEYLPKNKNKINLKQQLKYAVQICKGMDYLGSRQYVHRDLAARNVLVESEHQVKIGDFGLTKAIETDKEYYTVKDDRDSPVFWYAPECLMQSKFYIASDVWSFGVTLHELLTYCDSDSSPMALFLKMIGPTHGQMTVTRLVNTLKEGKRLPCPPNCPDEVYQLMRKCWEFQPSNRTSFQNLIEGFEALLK
T2 sequence (Q9UM73 19-1620): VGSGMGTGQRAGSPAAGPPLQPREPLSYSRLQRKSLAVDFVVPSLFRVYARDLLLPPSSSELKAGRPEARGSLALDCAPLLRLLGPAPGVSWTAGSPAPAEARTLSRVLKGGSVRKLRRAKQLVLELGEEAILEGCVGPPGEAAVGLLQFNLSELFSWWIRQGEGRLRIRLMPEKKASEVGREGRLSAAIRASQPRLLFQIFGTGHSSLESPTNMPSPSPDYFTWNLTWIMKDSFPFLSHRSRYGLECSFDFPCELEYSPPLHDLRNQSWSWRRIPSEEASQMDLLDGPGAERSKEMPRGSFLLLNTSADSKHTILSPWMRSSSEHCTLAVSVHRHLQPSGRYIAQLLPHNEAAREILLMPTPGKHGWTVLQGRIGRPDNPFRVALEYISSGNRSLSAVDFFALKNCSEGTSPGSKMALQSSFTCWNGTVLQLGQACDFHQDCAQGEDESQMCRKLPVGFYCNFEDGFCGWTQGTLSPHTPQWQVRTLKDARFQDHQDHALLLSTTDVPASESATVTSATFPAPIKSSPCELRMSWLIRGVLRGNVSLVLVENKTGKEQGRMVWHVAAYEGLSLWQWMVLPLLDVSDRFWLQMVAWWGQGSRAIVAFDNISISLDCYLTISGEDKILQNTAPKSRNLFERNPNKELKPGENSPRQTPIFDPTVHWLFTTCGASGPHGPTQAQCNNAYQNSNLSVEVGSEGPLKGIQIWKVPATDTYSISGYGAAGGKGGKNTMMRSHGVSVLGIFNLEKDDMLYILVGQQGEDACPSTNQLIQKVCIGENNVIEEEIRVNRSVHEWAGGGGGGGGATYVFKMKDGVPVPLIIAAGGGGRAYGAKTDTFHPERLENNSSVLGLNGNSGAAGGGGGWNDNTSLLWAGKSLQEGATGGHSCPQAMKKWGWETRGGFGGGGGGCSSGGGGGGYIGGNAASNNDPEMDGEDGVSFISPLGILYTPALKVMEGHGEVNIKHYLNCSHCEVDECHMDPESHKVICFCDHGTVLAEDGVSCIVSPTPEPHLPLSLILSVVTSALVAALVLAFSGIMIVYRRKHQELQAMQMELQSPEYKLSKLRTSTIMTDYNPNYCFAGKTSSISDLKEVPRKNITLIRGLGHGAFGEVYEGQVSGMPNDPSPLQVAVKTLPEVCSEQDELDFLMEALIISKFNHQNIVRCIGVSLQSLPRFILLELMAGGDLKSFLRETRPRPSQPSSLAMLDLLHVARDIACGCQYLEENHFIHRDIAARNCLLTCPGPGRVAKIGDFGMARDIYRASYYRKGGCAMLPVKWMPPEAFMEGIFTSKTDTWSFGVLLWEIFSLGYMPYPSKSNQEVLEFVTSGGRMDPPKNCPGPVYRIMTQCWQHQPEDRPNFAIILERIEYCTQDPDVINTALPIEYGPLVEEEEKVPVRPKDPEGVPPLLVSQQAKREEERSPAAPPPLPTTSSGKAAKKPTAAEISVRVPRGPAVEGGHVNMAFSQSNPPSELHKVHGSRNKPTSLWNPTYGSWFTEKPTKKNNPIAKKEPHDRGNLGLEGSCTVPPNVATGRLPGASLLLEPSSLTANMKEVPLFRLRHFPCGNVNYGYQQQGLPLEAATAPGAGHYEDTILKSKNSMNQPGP

For the compound `Nc1ccc2cc1CCc1cccc(c1)Nc1ncc(Cl)c(n1)N2` [Example B19, 6-Chloro-2,4,8,22-tetraazatetracyclo[14.3.1.1(3,7).1(9,13)]docosa-1(20),3(22),4,6,9(21),10,12,16,18-nonaen-12-amine dihydrochloride], the half-maximal inhibitory concentration (IC50) in assay [1] (Table B1) turned out to be 1.3 nM; in assay [2] (setting [5]), 610 nM; in assay [3] (Table B1), 0.97 nM; on TYK2 (Table B1), 2.5 nM; in assay [4] (Table B1), 7.5 nM.

For the compound `O=S1(=O)Nc2cccc(c2)Nc2ncc(Cl)c(n2)Nc2cccc1c2` [Example C7, 6-Chloro-14-thia-2,4,8,15,22-pentaazatetracyclo[14.3.1.1(3,7).1(9,13)]docosa-1(20),3(22),4,6,9(21),10,12,16,18-nonaene 14,14-dioxide trifluoroacetate], the 50% inhibitory concentration (IC50) came to 63 nM in assay [1]; 1900 nM in assay [2]; 36 nM in assay [3]; 32 nM against TYK2; 82 nM in assay [4].

As for `O=C(CC1CCN(C(=O)Nc2ccccc2)C1)Nc1ccc2cc1CCc1cncc(c1)Nc1ncc(Cl)c(n1)N2` (stereo not drawn) [Example A92, 3-(2-{[6-Chloro-2,4,8,18,22-pentaazatetracyclo[14.3.1.1(3,7).1(9,13)]docosa-1(20),3(22),4,6,9(21),10,12,16,18-nonaen-12-yl]amino}-2-oxoethyl)-N-phenylpyrrolidine-1-carboxamide bis(trifluoroacetate)], the half-inhibitory concentration (IC50) in assay [1] (setting [6]) was found to be 1.4 nM; in assay [3] (setting [8]), 6.1 nM; on TYK2 it was 21 nM; in assay [4] (setting [9]) it was 79 nM. In addition, in assay [2] (setting [7]), the “ALK % of inhibition at a concentration of 500 nM or 1 mM” value (“ALK % of inhibition” below) is on record as 61%.

Take `CCNC(=O)N1CCCC(C(=O)Nc2ccc3cc2CCc2cccc(c2)Nc2ncc(Cl)c(n2)N3)C1` (stereo not drawn) [Example A49, N(3)-[6-Chloro-2,4,8,22-tetraazatetracyclo[14.3.1.1(3,7).1(9,13)]docosa-1(20),3(22),4,6,9(21),10,12,16,18-nonaen-12-yl]-N(1)-ethylpiperidine-1,3-dicarboxamide trifluoroacetate]: the concentration for half-maximal inhibition (IC50) in assay [1] (setting [6]) was 14 nM; in assay [3] (setting [8]) it was 7.5 nM; on TYK2, 39 nM; in assay [4] (setting [9]), 11 nM. In addition, the “ALK % of inhibition” value in assay [2] (setting [7]) is 24%.

For `O=C(Nc1ccc2cc1CCc1cccc(c1)Nc1ncc(Cl)c(n1)N2)C1CC1` [Example B27, N-[6-Chloro-2,4,8,22-tetraazatetracyclo[14.3.1.1(3,7).1(9,13)]docosa-1(20), 3(22),4,6,9(21),10,12,16,18-nonaen-12-yl]cyclopropanecarboxamide trifluoroacetate], the IC50 in assay [1] (Table B1) came out at 5.2 nM; in assay [2] (setting [5]), 880 nM; in assay [3] (Table B1), 3.7 nM; against TYK2 (Table B1) it was 15 nM; in assay [4] (Table B1) it was 8.5 nM.

Turning to `O=C(Nc1ccc2cc1CCc1cccc(c1)Nc1ncc(Cl)c(n1)N2)N[C@H]1CCN(C(=O)c2ccno2)C1` [Example B230, N-[6-Chloro-2,4,8,22-tetraazatetracyclo[14.3.1.1(3,7).1(9,13)]docosa-1(20),3(22),4,6,9(21),10,12,16,18-nonaen-12-yl]-N′-[(3S)-1-(isoxazol-5-ylcarbonyl)pyrrolidin-3-yl]urea trifluoroacetate], the 50% inhibitory concentration (IC50) in assay [1] (Table B1) came to 2 nM; in assay [3] (Table B1), 7 nM; at TYK2 (Table B1) it was 15 nM; in assay [4] (Table B1), 50 nM. Moreover, the “ALK % of inhibition” value in assay [2] (setting [10]) was found to be 11%.

On to `O=C(Nc1ccc2cc1CCc1cccc(c1)Nc1ncc(Cl)c(n1)N2)c1ccccc1Cl` [Example B41, 2-Chloro-N-[6-chloro-2,4,8,22-tetraazatetracyclo[14.3.1.1(3,7).1(9,13)]docosa-1(20),3(22),4,6,9(21),10,12,16,18-nonaen-12-yl]benzamide hydrochloride], for which the IC50 in assay [1] (Table B1) is 1.7 nM; in assay [2] (setting [5]), 140 nM; in assay [3] (Table B1), 0.63 nM; against TYK2 (Table B1), 2.3 nM; in assay [4] (Table B1), 6.5 nM.

Turning to `Cc1csc(NC(=O)Nc2ccc3cc2CCc2cccc(c2)Nc2ncc(Cl)c(n2)N3)n1` [Example B249, N-[6-Chloro-2,4,8,22-tetraazatetracyclo[14.3.1.1(3,7).1(9,13)]docosa-1(20),3(22),4,6,9(21),10,12,16,18-nonaen-12-yl]-N′-(4-methyl-1,3-thiazol-2-yl)ureatrifluoroacetate], the IC50 in assay [1] (Table B1) amounted to 6 nM; in assay [3] (Table B1), 8.6 nM; on TYK2 (Table B1) it was 30 nM; in assay [4] (Table B1) it was 103 nM. Also, in assay [2] (setting [10]), the “ALK % of inhibition” value is given as 35%.

For `Cc1ccccc1S(=O)(=O)N1CCC(CC(=O)Nc2ccc3cc2CCc2cncc(c2)Nc2ncc(Cl)c(n2)N3)CC1` [Example A225, N-[6-Chloro-2,4,8,18,22-pentaazatetracyclo[14.3.1.1(3,7).1(9,13)]docosa-1(20),3(22),4,6,9(21),10,12,16,18-nonaen-12-yl]-2-{1-[(2-methylphenyl)sulfonyl]piperidin-4-yl}acetamide bis(trifluoroacetate)], the half-inhibitory concentration (IC50) in assay [1] (setting [6]) is 7.2 nM; in assay [3] (setting [8]), 180 nM; against TYK2, above 400 nM; in assay [4] (setting [9]), above 400 nM. Besides, the “ALK % of inhibition” value in assay [2] (setting [7]) stood at 36%.

`CC(=O)N1CCC(CC(=O)Nc2ccc3cc2CCc2cccc(c2)Nc2ncc(Cl)c(n2)N3)CC1` [Example A55, 2-(1-Acetylpiperidin-4-yl)-N-[6-chloro-2,4,8,22-tetraazatetracyclo[14.3.1.1(3,7).1(9,13)]docosa-1(20),3(22),4,6,9(21),10,12,16,18-nonaen-12-yl]acetamide trifluoroacetate]: the IC50 in assay [1] (setting [6]) stood at 1.5 nM; in assay [3] (setting [8]) it was 2.4 nM; at TYK2 it was 2.3 nM; in assay [4] (setting [9]) it was 54 nM. The “ALK % of inhibition” value in assay [2] (setting [7]) was 23%.

As to `Cc1occc1NC(=O)Nc1ccc2cc1CCc1cccc(c1)Nc1ncc(Cl)c(n1)N2` [Example B118, N-[6-Chloro-2,4,8,22-tetraazatetracyclo[14.3.1.1(3,7).1(9,13)]docosa-1(20), 3(22),4,6,9(21),10,12,16,18-nonaen-12-yl]-N′-(2-methyl-3-furyl)urea trifluoroacetate], the IC50 came out at 1.3 nM in assay [1] (Table B1), 2.1 nM in assay [3] (Table B1), 7.7 nM against TYK2 (Table B1) and 20 nM in assay [4] (Table B1). Besides, the “ALK % of inhibition” value in assay [2] (setting [10]) is 22%.

In the case of `CC(C)(C)OC(=O)N1CCC(CC(=O)Nc2ccc3cc2CCc2cncc(c2)Nc2ncc(Cl)c(n2)N3)CC1` [Example A70, tert-Butyl 4-(2-{[6-chloro-2,4,8,18,22-pentaazatetracyclo[14.3.1.1(3,7).1(9,13)]docosa-1(20),3(22),4,6,9(21),10,12,16,18-nonaen-12-yl]amino}-2-oxoethyl)piperidine-1-carboxylate bis(trifluoroacetate)], the IC50 in assay [1] (setting [6]) turned out to be 20 nM; in assay [3] (setting [8]) it was 57 nM; on TYK2, 110 nM; in assay [4] (setting [9]) it was 195 nM. Further, the “ALK % of inhibition” value in assay [2] (setting [7]) stood at 18%.

Take `CC1CN(C(=O)Nc2ccc3cc2CCc2cncc(c2)Nc2ncc(Cl)c(n2)N3)CCN1c1ccccc1` (stereo not drawn) [Example B320, N-[6-Chloro-2,4,8,18,22-pentaazatetracyclo[14.3.1.1(3,7).1(9,13)]docosa-1(20),3(22),4,6,9(21),10,12,16,18-nonaen-12-yl]-3-methyl-4-phenylpiperazine-1-carboxamide tris(trifluoroacetate)]: the IC50 is 79 nM in assay [1] (Table B1), above 400 nM in assay [3] (Table B1), above 400 nM on TYK2 (Table B1) and above 400 nM in assay [4] (Table B1). In addition, in assay [2] (percentage inhibition of the example compound at a concentration of 500 nM or 1 mM (not specified which)), the “ALK % of inhibition” value is listed as 57%.

Regarding `COc1cccc(NC(=O)N2CCC(C(=O)Nc3ccc4cc3CCc3cccc(c3)Nc3ncc(Cl)c(n3)N4)CC2)c1` [Example A38, N(4)-[6-Chloro-2,4,8,22-tetraazatetracyclo[14.3.1.1(3,7).1(9,13)]docosa-1(20),3(22),4,6,9(21),10,12,16,18-nonaen-12-yl]-N(1)-(3-methoxyphenyl)piperidine-1,4-dicarboxamide trifluoroacetate], the half-inhibitory concentration (IC50) was 6.6 nM in assay [1] (setting [6]), 16 nM in assay [3] (setting [8]), 48 nM on TYK2 and 46 nM in assay [4] (setting [9]). Also, in assay [2] (setting [7]), the “ALK % of inhibition” value came out at 55%.

Consider `CC(C)(C)OC(=O)N1CCC(C(=O)Nc2ccc3cc2CCc2cccc(c2)Nc2ncc(Cl)c(n2)N3)CC1` [Example A27, tert-Butyl 4-({[6-chloro-2,4,8,22-tetraazatetracyclo[14.3.1.1(3,7).1(9,13)]docosa-1(20),3(22),4,6,9(21),10,12,16,18-nonaen-12-yl]amino}carbonyl)piperidine-1-carboxylate trifluoroacetate], for which the half-inhibitory concentration (IC50) in assay [1] (setting [6]) is 61 nM; in assay [3] (setting [8]), 56 nM; against TYK2, 43 nM; in assay [4] (setting [9]) it was 124 nM. In assay [2] (setting [7]), the “ALK % of inhibition” value came out at 21%.

What is called IC50 is the concentration that inhibits the measured activity by half.
